Here are results for 13 compounds from ChEMBL document CHEMBL1122084, “Relative affinity of 17 alpha- and/or 21-esters and 17 alpha, 21-diesters of cortisol for a glucocorticoid receptor from rat thymocytes” (J Med Chem, 1982).

For experiment [1], the target named is T1, Glucocorticoid receptor (Rattus norvegicus) (UniProt P06536).
T1 sequence (whole entry): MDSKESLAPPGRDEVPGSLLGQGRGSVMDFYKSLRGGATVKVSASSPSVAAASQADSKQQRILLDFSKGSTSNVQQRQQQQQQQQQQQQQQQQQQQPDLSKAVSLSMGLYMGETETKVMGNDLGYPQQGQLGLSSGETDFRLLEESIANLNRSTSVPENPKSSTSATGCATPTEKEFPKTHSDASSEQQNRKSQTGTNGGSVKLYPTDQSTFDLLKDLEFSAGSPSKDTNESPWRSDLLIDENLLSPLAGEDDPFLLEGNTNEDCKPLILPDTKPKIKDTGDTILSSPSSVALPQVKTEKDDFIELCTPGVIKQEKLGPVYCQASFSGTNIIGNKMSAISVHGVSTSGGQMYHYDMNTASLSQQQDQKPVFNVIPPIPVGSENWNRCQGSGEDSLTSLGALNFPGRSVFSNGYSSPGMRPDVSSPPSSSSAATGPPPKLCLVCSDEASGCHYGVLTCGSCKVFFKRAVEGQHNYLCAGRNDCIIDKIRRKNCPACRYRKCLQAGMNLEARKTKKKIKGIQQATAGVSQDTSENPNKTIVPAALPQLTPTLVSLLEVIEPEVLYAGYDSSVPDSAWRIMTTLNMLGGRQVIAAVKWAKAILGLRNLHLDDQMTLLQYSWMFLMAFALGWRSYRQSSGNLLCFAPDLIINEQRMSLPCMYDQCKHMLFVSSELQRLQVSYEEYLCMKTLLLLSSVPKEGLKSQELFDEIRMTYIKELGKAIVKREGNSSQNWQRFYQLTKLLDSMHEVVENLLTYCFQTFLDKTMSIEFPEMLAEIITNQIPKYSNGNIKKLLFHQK
As to the kind of experiment: Relative binding affinity for glucocorticoid receptor of rat thymus cytosol by displacement of [3H]dexamethasone compared to cortisol. In general terms: Displacement assays read how much labelled ligand stays bound in the presence of the test substance.

Experiment [2] concerns the target T1, Glucocorticoid receptor (Rattus norvegicus). As to the kind of experiment: Relative binding affinity for glucocorticoid receptor of rat thymus cytosol by displacement of [3H]dexamethasone.

In experiment [1], `CCC(=O)OCC(=O)[C@@]1(OC(C)=O)CCC2C3CCC4=CC(=O)CCC4(C)C3C(O)CC21C` (stereo partly drawn) showed a Relative binding affinity of 0.093.

In turn, `CCCC(=O)O[C@]1(C(=O)CO)CC[C@H]2[C@@H]3CCC4=CC(=O)CC[C@]4(C)[C@H]3[C@@H](O)C[C@@]21C` displayed a Relative binding affinity in experiment [1] of 12.4.

`CC(=O)O[C@]1(C(=O)CO)CCC2C3CCC4=CC(=O)CCC4(C)C3C(O)CC21C` (stereo partly drawn) displayed a Relative binding affinity in experiment [1] of 1.14.

For `CCCCC(=O)O[C@]1(C(=O)CO)CCC2C3CCC4=CC(=O)CCC4(C)C3C(O)CC21C` (stereo partly drawn), the Relative binding affinity in experiment [1] was 11.5.

Consider `C[C@]12CCC(=O)C=C1CC[C@@H]1[C@@H]2[C@@H](O)C[C@@]2(C)[C@H]1CC[C@]2(O)C(=O)CO`, for which the Relative binding affinity in experiment [2] stood at 1.

In experiment [1], `CC(=O)OCC(=O)[C@@]1(OC(C)=O)CCC2C3CCC4=CC(=O)CCC4(C)C3C(O)CC21C` (stereo partly drawn) gave a Relative binding affinity of 0.036.

As for `CCCCC(=O)O[C@]1(C(=O)COC(=O)CCC)CCC2C3CCC4=CC(=O)CCC4(C)C3C(O)CC21C` (stereo partly drawn), in experiment [1], the Relative binding affinity is 1.33.

In experiment [1], `CC(=O)OCC(=O)[C@@]1(O)CC[C@H]2[C@@H]3CCC4=CC(=O)CC[C@]4(C)[C@H]3[C@@H](O)C[C@@]21C` displayed a Relative binding affinity of 0.046.

As for `CCCC(=O)OCC(=O)[C@@]1(OC(C)=O)CCC2C3CCC4=CC(=O)CCC4(C)C3C(O)CC21C` (stereo partly drawn), in experiment [1], the Relative binding affinity is 0.152.

In experiment [1], `CCCCC(=O)O[C@]1(C(=O)COC(C)=O)CCC2C3CCC4=CC(=O)CCC4(C)C3C(O)CC21C` (stereo partly drawn) yielded a Relative binding affinity of 0.76.

Consider `CCCCC(=O)O[C@]1(C(=O)COC(=O)CC)CCC2C3CCC4=CC(=O)CCC4(C)C3C(O)CC21C` (stereo partly drawn), for which the Relative binding affinity in experiment [1] stood at 1.17.

In turn, `CCCCC(=O)OCC(=O)[C@@]1(OC(C)=O)CCC2C3CCC4=CC(=O)CCC4(C)C3C(O)CC21C` (stereo partly drawn) displayed a Relative binding affinity in experiment [1] of 0.272.

`CCCCC(=O)OCC(=O)[C@@]1(O)CCC2C3CCC4=CC(=O)CCC4(C)C3C(O)CC21C` (stereo partly drawn) yielded a Relative binding affinity in experiment [1] of 0.32.
